In general, EC50 refers to the concentration that produces a half-maximal response.

The values below come from US9789082B2, “Somatostatin receptor subtype 4 (SSTR4) agonists” (Centrexion Therapeutics Corporation, priority 2013, dated 2017).

Data set [1] has as its target human Somatostatin 4 receptor (SSTR4) (Homo sapiens (Human), UniProt P31391). In words: cAMP assay with human somatostatin 4 receptor (hSSTR4 expressing H4 cells). In kind it is cell-based. The note with it: cAMP assay, read-out: SSTR4 agonism EC50. On the procedure:
Camp Assay Method Description for cAMP Assay with Human Somatostatin 4 Receptor
The activation of the SSTR4 receptor (Gi coupled) causes an inhibition of intracellular cAMP after stimulation with Forskolin, which can be quantifiable by use of a suitable assay Kit and an adequate plate reader. This technique is used to characterize pharmacological effects of the SSTR4 receptor agonists by use of hSSTR4 expressing H4 cells.
Compounds are dissolved and diluted in DMSO. The final test solution contains 1% DMSO. […] Cells are centrifuged and suspended in assay buffer (incl. 1:100 diluted Alexa antibody).
For the assay 5 μl of a cell suspension (approximately 5000 cells/well)—incl. Alexa antibody (diluted 1:100) are added into a 384 well MTP microtitre plate excepting one row or column (depending on the plate layout), which is reserved for the standard curve. Then 2 μl of compound sample is added as concentration response curve (e.g. 1e-5 M to 6e-10 M), usually in triplicates. Each assay contains incubations with vehicle controls instead of compound as controls for non-inhibited cAMP generation (100% CTL; ‘high values’) and incubations with 1 μM Somatosatin as controls for full inhibition and background (0% CTL; […]). […] Then the plates are shaken briefly and incubated for 60 min at room temperature. After 60 min 10 μl of the detection mix is added into all wells followed by an additional incubation period of 1 h. The plates are read in a suitable plate reader.
From this ratio, cAMP concentrations are calculated from standard curve and the EC50 is estimated by least square curve fit program.
The EC50 values were obtained with the aid of the above described cAMP ASSAY.
A general note: Changes in cAMP serve as a functional read-out for many G protein-coupled receptors.

Data set [2] is described as follows: Metabolic stability in pooled human liver microsomes (half-life). Format: in vitro ADME. The note with it: 1 μM test compound; for half-life at 1 μM: pooled human liver microsomes, pH 7.6, 37° C., read-out: Half-life t1/2. On the procedure:
The metabolic stability of the compounds according to the invention may be investigated as follows:
The metabolic degradation of the test compound is assayed at 37° C. with pooled human liver microsomes. The final incubation volume of 100 μl per time point contains TRIS buffer pH 7.6 at room temperature (0.1 M), magnesium chloride (5 mM), microsomal protein (1 mg/mL) and the test compound at a final concentration of 1 μM. Following a short preincubation period at 37° C., the reactions are initiated by addition of beta-nicotinamide adenine dinucleotide phosphate, reduced form (NADPH, 1 mM), and terminated by transferring an aliquot into solvent after different time points. After centrifugation (10000 g, 5 min), an aliquot of the supernatant is assayed by LC-MS/MS for the amount of parent compound. The half-life is determined by the slope of the semi-logarithmic plot of the concentration-time profile.
On the technique in general: Liver microsomes are a subcellular fraction often used to study metabolism.

A value given as a limit tells only on which side of the number the result lay.

Chain of human Somatostatin 4 receptor (SSTR4) (P31391 whole entry): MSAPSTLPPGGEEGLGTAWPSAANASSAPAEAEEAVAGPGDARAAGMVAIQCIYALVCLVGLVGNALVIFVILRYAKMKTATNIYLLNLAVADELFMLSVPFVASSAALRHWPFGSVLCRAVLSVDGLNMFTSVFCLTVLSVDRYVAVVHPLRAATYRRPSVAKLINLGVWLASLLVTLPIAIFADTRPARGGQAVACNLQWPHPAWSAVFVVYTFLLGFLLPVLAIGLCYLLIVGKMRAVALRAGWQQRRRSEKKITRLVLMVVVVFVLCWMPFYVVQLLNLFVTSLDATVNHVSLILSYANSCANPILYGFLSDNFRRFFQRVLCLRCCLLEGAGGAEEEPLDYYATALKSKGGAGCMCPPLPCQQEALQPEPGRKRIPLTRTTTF

For the compound `Cc1cc(F)ccc1OCC(C)(C)NC(=O)[C@H]1[C@@H]2CNC[C@@H]21.Cl` [Example 13], the EC50 in data set [1] came out at 2.4 nM. Also, the half-life at 1 μM in data set [2] is greater than 2.17 h.

Regarding `CC(C)(NC(=O)[C@H]1[C@@H]2CNC[C@@H]21)c1cnc2ccccn12.Cl` [Example 20], in data set [1], the EC50 is 8.5 nM. The half-life at 1 μM in data set [2] was greater than 2.17 h.

`O=C(NC1(Cc2ccccc2C(F)(F)F)CC1)[C@H]1[C@@H]2CNC[C@@H]21` [Example 2]: in data set [1], the EC50 came out at 56.5 nM. For the same compound, the half-life at 1 μM in data set [2] was greater than 2.17 h.

Take `Cc1cc(F)cn2c(C(C)(C)NC(=O)[C@H]3[C@@H]4CNC[C@@H]43)ncc12` [Example 158]: the EC50 in data set [1] is 0.8 nM. Besides, in data set [2], the half-life at 1 μM is greater than 2.17 h.

For the compound `CC(NC(=O)[C@H]1[C@@H]2CNC[C@@H]21)c1nn(C)c2ccccc12` (stereo partly drawn) [Example 111], in data set [1], the EC50 came out at 14.5 nM. Besides, the half-life at 1 μM in data set [2] is greater than 2.17 h.

With `CC(C)(COc1cnc(Cl)c2ccccc12)NC(=O)[C@H]1[C@@H]2CNC[C@@H]21` [Example 53], the EC50 in data set [1] is 9.8 nM. Moreover, the half-life at 1 μM in data set [2] came out at 0.783 h.

With `Cc1ccncc1OCC(C)(C)NC(=O)[C@H]1[C@@H]2CNC[C@@H]21` [Example 38], the 50% effective concentration (EC50) in data set [1] amounted to 27.8 nM. The half-life at 1 μM in data set [2] was greater than 2.17 h.

As to `Cc1cc(Cl)ccc1OCC(C)(C)NC(=O)[C@H]1[C@@H]2CNC[C@@H]21.Cl` [Example 15], the EC50 in data set [1] stood at 7.8 nM. The half-life at 1 μM in data set [2] is greater than 2.17 h.

Consider `CC(C)(NC(=O)[C@H]1[C@@H]2CNC[C@@H]21)c1ccc(Cl)c(Cl)c1.Cl` [Example 8], for which, in data set [1], the EC50 is 2.8 nM. Also, the half-life at 1 μM in data set [2] was greater than 2.17 h.

In the case of `CC(C)(NC(=O)[C@H]1[C@@H]2CNC[C@@H]21)c1nc(C2CC2)c2c(F)cccn12` [Example 149], in data set [1], the EC50 was 1 nM. Further, in data set [2], the half-life at 1 μM is greater than 2.17 h.

For the compound `Cc1cccn2c(C3(NC(=O)[C@H]4[C@@H]5CNC[C@@H]54)CCC3)ncc12` [Example 137], the EC50 in data set [1] was 0.8 nM. Besides, the half-life at 1 μM in data set [2] is greater than 2.17 h.

As to `CC(C)(NC(=O)[C@H]1[C@@H]2CNC[C@@H]21)c1cc2ccccn2c1` [Example 87], the concentration giving a half-maximal response (EC50) in data set [1] came to 22.9 nM. For the same compound, in data set [2], the half-life at 1 μM is greater than 2.17 h.

With `Cc1nc(C(C)(C)NC(=O)[C@H]2[C@@H]3CNC[C@@H]32)n2cccc(F)c12` [Example 151], the EC50 in data set [1] turned out to be 0.6 nM. Also, the half-life at 1 μM in data set [2] is greater than 2.17 h.

On to `CC(C)(NC(=O)[C@H]1[C@@H]2CNC[C@@H]21)c1ncc2c(F)cccn12.Cl` [Example 133], for which the EC50 in data set [1] is 7.1 nM. Moreover, in data set [2], the half-life at 1 μM was greater than 2.17 h.

For `CC(C)(COc1cnccc1C1CC1)NC(=O)[C@H]1[C@@H]2CNC[C@@H]21` [Example 57], the EC50 in data set [1] amounted to 16.3 nM. In addition, the half-life at 1 μM in data set [2] is greater than 2.17 h.

For the compound `Cc1cc(C2CC2)ccc1OCC(C)(C)NC(=O)[C@H]1[C@@H]2CNC[C@@H]21` [Example 65], the EC50 in data set [1] came out at 29.8 nM. In addition, the “Half-life t1/2” value in data set [2] (37° C.) was greater than 2.17 h.

With `CC(C)(NC(=O)[C@H]1[C@@H]2CNC[C@@H]21)c1nc(C(F)(F)F)nc2ccccc12` [Example 139], the EC50 in data set [1] worked out at 10.9 nM. The half-life at 1 μM in data set [2] is greater than 2.17 h.

With `CC(C)(NC(=O)[C@H]1[C@@H]2CNC[C@@H]21)c1cnn2ccccc12` [Example 167], the EC50 in data set [1] came out at 4.9 nM. Moreover, the half-life at 1 μM in data set [2] is greater than 2.17 h.

Take `CC(C)(NC(=O)[C@H]1[C@@H]2CNC[C@@H]21)c1ncccc1C(F)(F)F.Cl` [Example 23]: the EC50 in data set [1] came out at 17.5 nM. Also, the half-life at 1 μM in data set [2] is greater than 2.17 h.

As to `CC(NC(=O)[C@H]1[C@@H]2CNC[C@@H]21)c1nn(C)c2ccccc12` (single isomer, unassigned) [Example 113], the concentration giving a half-maximal response (EC50) in data set [1] worked out at 19.2 nM. In addition, the half-life at 1 μM in data set [2] is greater than 2.17 h.

As to `CC(C)(NC(=O)[C@H]1[C@@H]2CNC[C@@H]21)c1nc(C2CC2)nc2ccccc12` [Example 141], in data set [1], the EC50 was 3.3 nM. Moreover, the half-life at 1 μM in data set [2] is greater than 2.17 h.
